The values below come from article PMC9136610 (Acta Pharmaceutica Sinica. B, 2022).

The conditions of data set [1]: ref Drugbank database (go.drugbank.com); cited from earlier work.
For data set [2], the system named is plasma protein. Conditions: cited from earlier work; for Protein binding: ref Drugbank database (go.drugbank.com).
Data set [3] is described as follows: in vivo. As to conditions: female, MMTV-PyMT (FVB/NJ background), mouse; for Kp: AUCtissue/AUCplasma.
The conditions of data set [4]: for AUC in tumor tissues, fold higher than in the normal fatpad: i.v. injection.
Data set [5] has as its system albumin. Conditions: cited from earlier work.

The structures appear in SMILES notation.

In general, LogP refers to a log measure of how a compound divides between an organic and an aqueous phase. As usually defined, the pKa is the pH at which an ionisable group is half protonated. Usually AUC stands for concentration integrated over time. A lower AUC goes with low exposure. By bioavailability is commonly meant the share of a dose that reaches the circulation, judged against a reference dose that is usually intravenous. In general, Kp refers to tissue or fluid exposure divided by exposure in the circulation. Turning to `CN(C)CCOc1ccc(/C(=C(/CCCl)c2ccccc2)c2ccccc2)cc1` [Toremifene, toremifene], the AUCtumor (oral 5 mg/kg, tumor) is given as 1393. The “tumor drug concentration, fold higher than raloxifene” value (oral 5 mg/kg, tumor, vs raloxifene) is on record as 1.5 fold. Moreover, the “drug exposure in the lung, fold increase to tamoxifen (20 mg QD)” value (toremifene 60 mg QD (3-fold AUC) vs tamoxifen 20 mg QD) came out at 2 fold. In data set [1], the log partition coefficient (LogP) is listed as 5.65, the LogS is −6 and the pKa was 8.76. Also, in data set [2], the Protein binding is 92%. In data set [3] (po, 5 mg/kg), the AUC stood at 64.9 ng·h/mL and the bioavailability stood at 18.5%. The Kp in data set [3] (po, Kpbone, bone) was found to be 5.1. Also, the Kp in data set [3] (po, Kpfatpad, fatpad) is 20.9. The same compound gave a concentration ratio (Kp) in data set [3] (po, Kptumor, tumor) of 21.5.

Consider `Cc1cc(-c2ccc(/N=N/c3ccc4c(S(=O)(=O)O)cc(S(=O)(=O)O)c(N)c4c3O)c(C)c2)ccc1/N=N/c1ccc2c(S(=O)(=O)O)cc(S(=O)(=O)O)c(N)c2c1O` [Evan blue], for which the “plasma protein binding level” value in data set [2] is 68%.

Consider `CC/C(=C(/c1ccc(OCCN(C)C)cc1)c1cccc(O)c1)c1ccccc1` [Droloxifene], for which the AUCtumor (oral 5 mg/kg, tumor) is listed as 3238.8. Besides, in data set [4] (i.v. 2.5 mg/kg), the “tissue selectivity compared to tamoxifen and toremifene, in words” value is given as “higher lung but lower pancreas selectivity”. Besides, the “AUC in tumor tissues, fold higher than in the normal fatpad” value in data set [4] turned out to be 3.1 fold. Also, in data set [1], the LogP is recorded as 5.43, the LogS is on record as −5.1 and the pKa is 8.49. In data set [3] (po, 5 mg/kg), the area under the curve (AUC) came to 127 ng·h/mL and the bioavailability amounted to 45.3%. The Kp in data set [3] (po, Kpbone, bone) came out at 7.7. In data set [3] (po, Kpfatpad, fatpad), this compound registered a Kp of 9.5. Besides, the Kp in data set [3] (po, Kptumor, tumor) was 25.6.

For the compound `CC/C(=C(\c1ccc(O)cc1)c1ccc(OCCN(C)C)cc1)c1ccccc1` [Afimoxifene, afimoxifene], the AUCtumor (oral 5 mg/kg, tumor) is 2886.5. Also, in data set [4] (i.v. 2.5 mg/kg), the “tissue selectivity compared to tamoxifen and toremifene, in words” value is “higher lung but lower pancreas selectivity”. Also, in data set [4] (i.v. 2.5 mg/kg, AUC ratio), the “exposure difference in the kidney, afimoxifene vs droloxifene” value turned out to be 4.8 fold and the “exposure difference in the liver, afimoxifene vs droloxifene” value is on record as 6.8 fold. In addition, the “AUC in tumor tissues, fold higher than in the normal fatpad” value in data set [4] was 2.2 fold. For the same compound, in data set [1], the LogP is 5.44 and the LogS is reported as −5.1. Further, in data set [2], the Protein binding is listed as 99%. In data set [3] (po, 5 mg/kg), this compound had an exposure (AUC) of 114 ng·h/mL and a bioavailability of 32.4%. The same compound had a Kp in data set [3] (po, Kpbone, bone) of 5. In data set [3] (po, Kpfatpad, fatpad), the Kp stood at 10.9. The partition ratio (Kp) in data set [3] (po, Kptumor, tumor) was determined as 25.3.

As to `COc1ccc2c(c1)CCC(c1ccccc1)=C2c1ccc(OCCN2CCCC2)cc1` [Nafoxidine, nafoxidine], the AUCtumor (oral 5 mg/kg, tumor) is given as 6118.7. Moreover, where the note is “vs lasofoxifene”, the “oral bioavailability, fold higher than lasofoxifene” value turned out to be 3 fold. Further, in data set [4] (after i.v and p.o. administration), the “tissue selectivity compared to lasofoxifene, in words” value was “higher selectivity in stomach, liver, fat, fatpad, spleen, kidney, but lower selectivity in heart, tumor and pancreas”. In data set [4] (i.v. 2.5 mg/kg), the “exposure in the fat, fold higher than lasofoxifene” value is given as 8 fold and the “exposure in the spleen, fold higher than lasofoxifene” value was determined as 6 fold. Also, in data set [1], the LogP was 6.36, the LogS is recorded as −5.91 and the pKa is 8.95. The bioavailability in data set [3] stood at 83.4%. In addition, in data set [3] (po, 5 mg/kg), the AUC was determined as 969 ng·h/mL. Besides, the Kp in data set [3] (po, Kpbone, bone) was determined as 1.4. The Kp in data set [3] (po, Kpfatpad, fatpad) turned out to be 4.5. The same compound yielded a Kp in data set [3] (po, Kptumor, tumor) of 6.3.

For `O=C(c1ccc(OCCN2CCCCC2)cc1)c1c(-c2ccc(O)cc2)sc2cc(O)ccc12` [Raloxifene, raloxifene], under “oral 5 mg/kg, tumor”, the AUCtumor is 929.4. Moreover, in data set [3] (po, 5 mg/kg), the AUC is 114 ng·h/mL.

For the compound `Oc1ccc2c(c1)CC[C@H](c1ccccc1)[C@@H]2c1ccc(OCCN2CCCC2)cc1` [Lasofoxifene, lasofoxifene], the AUCtumor (oral 5 mg/kg, tumor) was determined as 996. Also, in data set [1], the LogP is reported as 6.36, the LogS was −6 and the pKa was 8.98. The Protein binding in data set [2] is listed as 99%. In data set [3], the bioavailability amounted to 26.9%. In data set [3] (po, 5 mg/kg), this compound gave an AUC of 75.4 ng·h/mL. Moreover, in data set [3] (po, Kpbone, bone), the concentration ratio (Kp) was found to be 3.5. The compound further displayed a Kp in data set [3] (po, Kpfatpad, fatpad) of 5.7. In data set [3] (po, Kptumor, tumor), the Kp amounted to 13.2.

For the compound `CC/C(=C(\c1ccccc1)c1ccc(OCCN(C)C)cc1)c1ccccc1` [Tamoxifen], the AUCtumor (oral 5 mg/kg, tumor) is 3621.3. Also, the “exposure difference in the fat, intestine and skin, tamoxifen vs toremifene” value in data set [4] (i.v. 2.5 mg/kg, AUC ratio) was 2 fold. Also, in data set [2], the Protein binding is 98%. For the same compound, in data set [3] (po, 5 mg/kg), the AUC is 102 ng·h/mL and the bioavailability was 39.4%.

For the compound `COc1cccc2c1C(=O)c1c(O)c3c(c(O)c1C2=O)C[C@@](O)(C(=O)CO)C[C@@H]3O[C@H]1C[C@H](N)[C@H](O)[C@H](C)O1` [doxorubicin], the “binding affinity to albumin” value in data set [5] is 7500 mol/L.
